“Also recorded” adds a separate entry of the source. Like-named read-outs stand apart in the source and are kept apart here.
Columns and labels:
HepG2 cells = experiment: Rotenone Oxygraph Assay (high-resolution respirometry of intact HepG2 cells); type: cell-based, human; settings: Table 7; 1 μM rotenone, compound 10 μM
Protocol: The Oxygraph-2 k (O2k, OROBOROS INSTRUMENTS, Austria) was used for measurements of respiration of intact cells. The respirometry was performed in Dulbecco's Modified Eagle Medium (DMEM) high glucose without supplements. All experiments were performed at 37° C.
HepG2 cells (ATCC collection code HB-8065™) were cultured in 10 cm^2 culture dishes in DMEM high glucose medium supplemented with 10% fetal bovine serum (FBS) and 100 units/mL penicillin and 100 μg/mL streptomycin until approximately 90% confluence was reached. Immediately prior to performing the respirometric assay, the cells were washed with media without FBS, trypsinized and resuspended in DMEM high glucose without FBS.
The final concentration of intact cells in the O2k-chamber was 0.5·10^6/mL. After stabilization of respiration, the Complex I inhibitor, rotenone, at 1 μM final concentration was added to inhibit electron flux via Complex I. Then, compound to be tested was added at 10 μM final concentration, and the change in respiration rate of intact cells was monitored.

Nrf-2 = Nrf-2 Activation Assay (Nrf-2 Assay); type: cell-based, human; settings: for activation of Nrf-2 pathway, in words: FIG. 7; for Nrf-2 Assay: Table 7, 1 μM compound, 24 hours, qPCR of Nrf-2 responsive genes
Protocol: This assay was developed internally and was designed to determine if the novel test compounds disclosed herein active Nrf-2 and thereby promote resolution of inflammation by the mechanism believed to be responsible for the activity of omaveloxolone.
Briefly, GM03665 Friedreich Ataxia patient fibroblasts were grown in 12 Well Plates (TC Cell+F) (Sarstedt, Numbrecht Germany), at a density of […] in DMEM/F12 (Gibco, ThermoFisher Scientific, Waltham, MA, USA) cell media supplemented with 10% FBS and 1% Pen/Strep. Cells were left to rest overnight at 37° C. in a humidified atmosphere with 5% CO2 to allow attachment of the cells to the culture plate. Before continuing assay visual inspection of each well was done by light microscopy to detect any possible bacterial and fungal contamination. […] After incubation, cell media was removed and total RNA from the cells was isolated using E.Z.N.A.® Total RNA Kit I (Omega Bio-tek, Norcross, Georgia, USA) spin columns, and first-strand cDNA synthesis was carried out using a High Capacity cDNA Reverse Transcription Kit (Applied Biosystems™, Foster City, CA) following the manufacturer's instructions. qPCR analysis of gene expression was performed by mixing SYBR® Green Master Mix (Applied Biosystems™) with synthesized cDNA and forward and reverse primers. […] (60 cycles), and 95° C. for 60 seconds, followed by melt curve analysis at 72-95° C., 0.3° C./sec. The relative expression levels for each gene were calculated with the ΔΔCt method and normalized to the expression of REEP5 and SNRPD3 genes.

[1] = system: HepG2 human hepatocarcinoma cells; experiment: Rotenone ATP Assay (Complex I Assay); type: cell-based; settings: for EC50: HepG2, 50 micromolar rotenone, 60 minutes; for Complex I by-pass activity / restoring ATP production, in words: summary of rotenone assays
Protocol: This assay has been adapted from Haefeli R H, Erb M, Gemperli A C, Robay D, Courdier Fruh I, et al. (2011) NQO1-Dependent Redox Cycling of Idebenone: Effects on Cellular Redox Potential and Energy Levels. PLoS ONE 6(3): e17963. HepG2 human hepatocarcinoma cells were co-incubated with the electron transport chain Complex I toxin rotenone +/− compounds of interest and the corresponding effect on ATP synthesis was measured with a bioluminescent substrate.
In brief, HepG2 cells were plated at 25,000 cells per well in low glucose (1 gram/Liter) DMEM medium+10% fetal calf serum and incubated for 24 hours. The following day, the media was decanted and subsequently replaced with glucose free/serum free DMEM which has been supplemented with 50 micromolar rotenone and compound of interest. Serial dilutions of compound were prepared in 3× dilutions beginning at 25 micromolar. The cells were incubated for 60 minutes in a humidified tissue culture incubator. Following incubation, ATP levels were quantified via bioluminescent assay (Promega […] Glo Assay kit) and readings were captured on a standard microplate reader.
ATP bioluminescence is plotted versus the log of compound of interest and data were used to generate EC50 values. Curve fitting was performed using a sigmoidal dose response curve fit function (GraphPad Prism software).
Robustness of curve fit was assessed as a quality control measure, with an R squared value of at least 0.80 being required for a successful curve fit. Compounds of interest showing an increase in ATP bioluminescence relative to vehicle control were verified in an independent biological replicate of n=3 technical replicates per dose.
This assay is a direct measure of the ability of compounds of interest to restore ATP production under conditions of inhibition of Complex I of the mitochondrial electron transport chain. As the majority of ATP produced via the electron transport chain is thought to derive from Complex I activity, significant impairment in Complex I function has dire biological consequences. Of note, Complex I mutations are thought to drive pathophysiology in multiple mitochondrial diseases, including Leigh syndrome and Leber's Hereditary Optic Neuropathy (LHON), while diminished Complex I activity and the resultant attenuation of ATP production has been shown in neurodegenerative diseases, including Friedreich's Ataxia, Parkinson's Disease and Huntington's Disease.

[2] = system: frataxin deficient fibroblasts (GM03665); experiment: cells; type: cell-based
lipoxygenase-15 enzyme = lipoxygenase-15 enzyme (Glycine max (Soybean) (Glycine hispida), UniProt P08170); experiment: Lipoxygenase-15 Assay (LO-15 Assay); settings: reduced form of compounds
GM03665 cells = experiment: RSL3 Toxicity Assay (RSL3 Assay); type: cell-based, human; settings: for EC50: 2 μM RSL3, 24 hours, MTT
Protocol: In brief, GM03665 cells (Coriell Institute) were seeded in 96-well plates (Sarstedt) in DMEM cell culture media containing 10% Fetal Bovine serum and 1% Penicillin-Streptomycin (Pen-Strep) antibiotic mix at the amount of 2×10^4/mL (100 μL or 2×10^3 cells per well). Cells were left to rest overnight at 37° C. in a humidified atmosphere with 5% CO2 to allow attachment of the cells to the culture plate. Test compounds were prepared as DMSO stocks (10 mM) and were serially diluted in cell culture media to obtain 2× working solutions. Cell media was discarded and replaced by 50 μL of test compound solutions or cell media with vehicle for control wells. Within 15 minutes, 2× working solution (4 μM) of 1S,3R-RSL3 (CAS #1219810-16-8, Sigma-Aldrich) (diluted from 5 mM DMSO stock in cell culture media) was added. Final reaction volume was 100 μL and final DMSO concentration in reaction was kept below 0.2% (v/v) and equal in all wells. Final RSL3 concentration was 2 μM and test compound final concentrations in reaction were up to 1000 nM. After 24 hours of incubation cell viability was assessed by MTT test. MTT (Sigma-Aldrich) solution 1 mg/mL in 1×PBS (pH=7,4) was prepared 1 hour before the assay and filtered through Filtropur S 0.2 filters (Sarstedt). Cell media with test compounds was discarded and 100 μL of MTT solution was added to cells. The plates were incubated for 2 hours at +37° C. Thereafter, the MTT solution was removed and 100 μL of isopropanol was added to dissolve sediment. Absorption at 570 and 650 nm was measured using Hidex Sense microplate reader.

| Compound | Rotenone Oxygraph Assay % Increase (HepG2 cells) | activation of Nrf-2 pathway, in words (Nrf-2) | Nrf-2 Assay (Nrf-2) | EC50 ([1]; ATP bioluminescence, read-out: EC50 Rotenone ATP Assay) [nM] | EC50 ([1]; Table 7, read-out: Rotenone ATP Assay EC50) [nM] | Complex I by-pass activity / restoring ATP production, in words [1] | activity in BSO assay (protection from BSO induced cell death), in words [2] | EC50 ([2]; Table 7, FA patient fibroblasts, 10 mM BSO, 48 hrs, MTT, read-out: BSO Assay) [nM] | activity in LO-15 assay, in words (lipoxygenase-15 enzyme) | activity in RSL3 assay (protection from RSL3 induced ferroptosis), in words (GM03665 cells) | EC50 (GM03665 cells; Table 3, mean of at least three measurements, unit printed in Table 7, read-out: RSL3 Assay EC50, Mean) [nM] | EC50 (GM03665 cells; Table 7, read-out: RSL3 Assay EC50) [nM] |
| --- | --- | --- | --- | --- | --- | --- | --- | --- | --- | --- | --- | --- |
| (R)-2-(3-hydroxy-3-methyl-4-(3-(trimethylsilyl)propoxy)butyl)-3,5,6-trimethylcyclohexa-2,5-diene-1,4-dione [Compound M] | 56.6 +/− 11.3% | do not activate | Inactive | 1000 to 3000 | 1340 | active | able to prevent ferroptotic cell death; also recorded: active | 61.2 | best result; also recorded: effective inhibitors | active; also recorded: able to prevent ferroptotic cell death | 41.2 | 41.2 |
| CC1=C(C)C(=O)C(CC[C@](C)(O)CC/C=C(\C)CCC=C(F)F)=C(C)C1=O [Compound H, (R,E)-2-(11,11-difluoro-3-hydroxy-3,7-dimethylundeca-6,10-dien-1-yl)-3,5,6-trimethylcyclohexa-2,5-diene-1,4-dione] | 54.3 +/− 13% | do not activate | Inactive | – | – | active | able to prevent ferroptotic cell death; also recorded: active | – | active; also recorded: effective inhibitors | active; also recorded: able to prevent ferroptotic cell death | – | – |

From patent publication US20230303506A1, “COMPOSITIONS AND METHODS FOR THE PREVENTION AND/OR TREATMENT OF MITOCHONDRIAL DISEASE, INCLUDING FRIEDREICH'S ATAXIA” (Stealth BioTherapeutics Inc., priority 2019, published 2023)
